“Also recorded” adds a separate entry of the source.
Experiment: Observations of appearance, structure and phase separation (Centrifuge Test)
Format: physicochemical
Settings: sulfate

## CCCCCCCCCCCCCOS(=O)(=O)[O-].[Na+] [non-ethoxylated sodium tridecyl sulfate, sodium tridecyl sulfate]
  lamellar phase formation of personal cleansing compositions comprising the surfactant: did not form lamellar phase; also recorded: unable to produce a stable lamellar phase

From patent US12029803B2, “Personal cleansing compositions, methods and uses” (The Procter & Gamble Company, priority 2021, dated 2024)
